Measured values from patent publication US20250108038A1 (priority 2023, published 2025).
Like-named read-outs stand apart in the source and are kept apart here.

Key:
in vivo = details: single PO Compound I-19 6.645 mg/kg; male CD-1 mice; mean
Experimental: Dose solutions were prepared freshly on each day of studies prior to dosing.
The animals were weighed immediately prior to dosing and the dose volume was calculated individually based the obtained body weight and the nominal dose volume. […] The nominal dose volume was 10 mL/kg in both studies.
Cage side observation was performed before and after dosing as well as at each scheduled sample collection time. The observation included appearance, posture, behavior, morbidity and mortality. Abnormal findings, if any, are required to be recorded in the study record and communicated with study director, veterinarian, and Supernus if necessary.
Approximately 40 μL blood was collected at each scheduled time point from saphenous veins. The actual sample collection time was within 1 min. of the nominal time for collections prior to or at 1 hour, and within 5% of the nominal values for collections post 1 hour.
The blood samples were placed in pre-labeled micro-centrifuge tubes containing K2EDTA as anticoagulant and kept on ice before they were processed to plasma within 30 minutes of collection by centrifugation at 4° C., 3000 g for 5 minutes. The plasma samples were stored at −70±10° C. until LC-MS/MS analysis.
Plasma concentrations below the LLOQ prior to Tmax were set to zero, and those after Tmax were excluded from PK calculation. The nominal dose and the nominal sample collection time were used for the calculation. The values of plasma concentrations and PK parameters are reported to three significant figures. The average values of each treatment group are presented as mean±SD.

[1] = format: physicochemical
Experimental: All conditions and stock preparation procedures were identical to the conditions applied in the transporter assays (Table 74, Table 75 and Table 76). […] A follow-up assay was carried out at 7 concentrations in order to correct the nominal concentrations for the IC50 calculations (Table 78). Where NSB was observed (>20% loss) the assay concentrations were corrected according to the result of the respective NSB assay.
All conditions and stock preparation procedures were identical to the conditions applied in the transporter assays.
Samples (1.5×C0 or Total) were immediately taken after mixing to determine the total initial concentrations. The assay mixes were pre-incubated for 15 minutes at 37° C. and at 32° C. in case of BCRP and MDR1. After the pre-incubation step the assay mixes were 1.5-times diluted with (pre-warmed) transport buffer reaching the final nominal concentrations of the compounds in the VT assay and then were further incubated at 37° C. or 32° C. for BCRP and MDR1 and sampled in the end of incubation (timc).
The aqueous buffer was mixed, and samples (C0 or Total) were immediately taken for determining the total initial concentrations. The helper plate was pre-warmed for 15 minutes at 37° C. The pre-warmed aliquots of the aqueous buffers with the test articles (50 μL) were transferred from the helper plate into the wells of another 96-well plate (assay plate) and incubated for 30 minutes (pre-incubation) then removed from the wells. Thereafter the same wells of the assay plate were dosed again with other aliquots of the aqueous buffers with the test articles and were further incubated in the assay plate at 37° C. and finally sampled (tinc).

[2] = HBSS (pH 7.4) uptake buffer, 37° C., nominal 10.00 μM
[3] = HBSS (pH 7.4) uptake buffer, 37° C., nominal 100.00 μM
[4] = HBSS (pH 7.4), 37° C., nominal 0.412 μM, IC50 determination
[5] = HBSS (pH 7.4), 37° C., nominal 1.235 μM, IC50 determination
[6] = HBSS (pH 7.4), 37° C., nominal 3.704 μM, IC50 determination
[7] = HBSS (pH 7.4), 37° C., nominal 11.11 μM, IC50 determination
[8] = HBSS (pH 7.4), 37° C., nominal 33.33 μM, IC50 determination
[9] = HBSS (pH 7.4), 37° C., nominal 100.00 μM, IC50 determination
[10] = KH (pH 8.0) uptake buffer, 37° C., nominal 10.000 μM
[11] = KH (pH 8.0) uptake buffer, 37° C., nominal 100.000 μM
[12] = KH (pH 8.0), 37° C., nominal 0.412 μM, IC50 determination
[13] = KH (pH 8.0), 37° C., nominal 1.235 μM, IC50 determination
[14] = KH (pH 8.0), 37° C., nominal 3.704 μM, IC50 determination
[15] = KH (pH 8.0), 37° C., nominal 11.11 μM, IC50 determination
[16] = KH (pH 8.0), 37° C., nominal 33.33 μM, IC50 determination
[17] = KH (pH 8.0), 37° C., nominal 100.00 μM, IC50 determination
[18] = Transport buffer (pH 7.4) for BSEP VT inhibition assay, 37° C., nominal C0 10.00 μM
[19] = Transport buffer (pH 7.4) for BSEP VT inhibition assay, 37° C., nominal C0 100.00 μM
[20] = Transport buffer with sucrose (pH 7.4) for BCRP and MDR1 VT inhibition assay, 32° C., nominal C0 10.00 μM
[21] = Transport buffer with sucrose (pH 7.4) for BCRP and MDR1 VT inhibition assay, 32° C., nominal C0 100.00 μM

SMILES: Clc1ccc(C2(OCC3OCCO3)c3ccccc3C3=NCCN32)cc1 (stereo not shown) [Compound I-19]
- AUC0-last of Compound I-19 (in vivo): 2.04 ng·h/mL
- Cmax of Compound I-19 (in vivo): 4.27 ng/mL
- MRT0-last of Compound I-19 (in vivo): 21.9 min
- Tlast of Compound I-19 (in vivo): 0.583 h
- Tmax of Compound I-19 (in vivo): 20 min
- Non-specific binding (NSB) ([1]; BCRP, BSEP and MDR1 VT inhibition assay setup): did not show any loss due to plastic binding
- Non-specific binding (NSB) ([1]; HBSS (pH 7.4) and KH (pH 8.0) uptake assay buffers): more than 20%
- Concentration after incubation [1, 2]: 5.98 ± 0.13 µM
- Loss of Compound I-19 during the NSB assay [1, 2]: 34%
- Measured dosing concentrations [1, 2]: 8.99 ± 0.60 µM
- Concentration after incubation [1, 3]: 59.43 ± 5.59 µM
- Loss of Compound I-19 during the NSB assay [1, 3]: 23%
- Measured dosing concentrations [1, 3]: 76.99 ± 6.62 µM
- Concentration after incubation [1, 4]: 0.35 ± 0.03 µM
- Loss of Compound I-19 during the NSB assay [1, 4]: 39%
- Measured dosing concentrations [1, 4]: 0.57 ± 0.14 µM
- Concentration after incubation [1, 5]: 0.83 ± 0.07 µM
- Loss of Compound I-19 during the NSB assay [1, 5]: 30%
- Measured dosing concentrations [1, 5]: 1.18 ± 0.09 µM
- Concentration after incubation [1, 6]: 2.49 ± 0.18 µM
- Loss of Compound I-19 during the NSB assay [1, 6]: 49%
- Measured dosing concentrations [1, 6]: 4.84 ± 0.73 µM
- Concentration after incubation [1, 7]: 6.86 ± 0.20 µM
- Loss of Compound I-19 during the NSB assay [1, 7]: 29%
- Measured dosing concentrations [1, 7]: 9.59 ± 1.50 µM
- Concentration after incubation [1, 8]: 17.44 ± 3.56 µM
- Loss of Compound I-19 during the NSB assay [1, 8]: 27%
- Measured dosing concentrations [1, 8]: 23.77 ± 2.59 µM
- Concentration after incubation [1, 9]: 34.49 ± 3.00 µM
- Loss of Compound I-19 during the NSB assay [1, 9]: 12%
- Measured dosing concentrations [1, 9]: 38.99 ± 3.97 µM
- Concentration after incubation [1, 10]: 5.54 ± 0.13 µM
- Loss of Compound I-19 during the NSB assay [1, 10]: 36%
- Measured dosing concentrations [1, 10]: 8.68 ± 0.34 µM
- Concentration after incubation [1, 11]: 20.35 ± 1.94 µM
- Loss of Compound I-19 during the NSB assay [1, 11]: 33%
- Measured dosing concentrations [1, 11]: 30.52 ± 1.33 µM
- Concentration after incubation [1, 12]: 0.27 ± 0.02 µM
- Loss of Compound I-19 during the NSB assay [1, 12]: 39%
- Measured dosing concentrations [1, 12]: 0.44 ± 0.10 µM
- Concentration after incubation [1, 13]: 0.73 ± 0.04 µM
- Loss of Compound I-19 during the NSB assay [1, 13]: 34%
- Measured dosing concentrations [1, 13]: 1.10 ± 0.10 µM
- Concentration after incubation [1, 14]: 1.68 ± 0.26 µM
- Loss of Compound I-19 during the NSB assay [1, 14]: 36%
- Measured dosing concentrations [1, 14]: 2.63 ± 1.34 µM
- Concentration after incubation [1, 15]: 4.05 ± 0.49 µM
- Loss of Compound I-19 during the NSB assay [1, 15]: 45%
- Measured dosing concentrations [1, 15]: 7.32 ± 3.86 µM
- Concentration after incubation [1, 16]: 12.58 ± 1.30 µM
- Loss of Compound I-19 during the NSB assay [1, 16]: 39%
- Measured dosing concentrations [1, 16]: 20.72 ± 2.88 µM
- Concentration after incubation [1, 17]: 34.06 ± 2.30 µM
- Loss of Compound I-19 during the NSB assay [1, 17]: 25%
- Measured dosing concentrations [1, 17]: 45.32 ± 9.94 µM
- Concentration after incubation (tinc) [1, 18]: 12.92 ± 0.21 µM
- Loss of Compound I-19 during the NSB assay [1, 18]: −4%
- Measured dosing concentrations ([…] C0) [1, 18]: 18.55 ± 0.06 µM
- Concentration after incubation (tinc) [1, 19]: 122.52 ± 9.60 µM
- Loss of Compound I-19 during the NSB assay [1, 19]: −13%
- Measured dosing concentrations ([…] C0) [1, 19]: 162.83 ± 11.51 µM
- Concentration after incubation (tinc) [1, 20]: 13.10 ± 1.26 µM
- Loss of Compound I-19 during the NSB assay [1, 20]: −11%
- Measured dosing concentrations ([…] C0) [1, 20]: 17.68 ± 0.42 µM
- Concentration after incubation (tinc) [1, 21]: 124.55 ± 5.96 µM
- Loss of Compound I-19 during the NSB assay [1, 21]: −12%
- Measured dosing concentrations ([…] C0) [1, 21]: 167.14 ± 11.84 µM
- Concentration after incubation ([1]; pH 7.4): 0.15 ± 0.01 µM
- Loss of Compound I-19 during the NSB assay ([1]; pH 7.4): 33%
- Measured dosing concentrations ([1]; pH 7.4): 0.23 ± 0.02 µM
- Concentration after incubation ([1]; pH 8): 0.10 ± 0.01 µM
- Loss of Compound I-19 during the NSB assay ([1]; pH 8): 41%
- Measured dosing concentrations ([1]; pH 8): 0.17 ± 0.02 µM
